Values of other authors as cited in patent publication US12606918B2, “Production of sanitizing fluid using in situ electrolysis” (APPLIED PHAGE GMBH, priority 2024, dated 2026).
Where two headings read alike, the source gives them in different places.

Compound: [O-][Cl+2]([O-])O [chlorate]
- ADI (allowable daily intake) (as ClO3^−): 0.0024 mg/kg BW·day
- ADI (allowable daily intake) (as NaClO3): 0.003 mg/kg BW·day
- Arfd (acute reference dose) (as NaClO3): 0.003 mg/kg BW·day
